Data on one substance can be found in patent publication US9290544B2, “Methods for making and using molecular switches involving circular permutation” (priority 2004, dated 2016).

This assay in a line: Ampicillin hydrolysis by purified RG13, 25° C. The settings on record: 50 μM ampicillin. The format is biochemical. How it is done: All kinetic assays were performed at 25° C. in the presence of 100 mM sodium phosphate buffer, pH 7.0. Ten μl of enzyme stock was added to 1.59 ml buffer (containing the saccharide, if desired). After incubation for 30 seconds, 0.4 ml of 5× substrate was added and the absorbance at the appropriate wavelength was recorded using the Cary50 UV-VIS spectrophotometer. The wavelength monitored was 486 nm, 240 nm, and 232 nm for nitrocefin, carbenicillin, and ampicillin respectively. From the initial rate of reaction the kinetic constants were determined using Eadie-Hofstee plots. […] The rate data was consistent with a small hysteretic effect (Brennan et al. 1994) and not substrate inhibition as preincubation of the enzyme with the substrate for one minute prevented the lag from occurring upon addition of more substrate. Therefore, the steady state parameters for nitrocefin hydrolysis in the absence of maltose were determined by measuring the rate at 1-2 minutes (well after the lag) and correcting the substrate concentration by subtracting the amount of substrate hydrolyzed. In all cases the extent of reaction at the point the rate was measured was less than 25%. In the presence of maltose, no lag was observed.

In the case of “RG13: MBP-BLA fusion switch MBP[1-316]-BLA[227-286]-GSGGG-BLA[24-226]-S-MBP[319-370]; SEQ ID NO: 61”, the “Rate increase with maltose” value turned out to be 16 fold.
